The record followed here is paper PMC6280375 (The Journal of Venomous Animals and Toxins Including …, 2018).

The experiment deals with BjussuLAAO-II. Conditions: read-out: Km (mM) / Mean ± SD; 0.1 M HEPES pH 7, 45 °C, 2 mM OPD, 1 U/mL HRP.
Regarding `CSCC[C@H](N)C(=O)O` [Met], the Km is 0.6 ± 0.1 mM. For `CC(C)C[C@H](N)C(=O)O` [Leu], the Km was 0.3 mM.

As to `NC(=O)CC[C@H](N)C(=O)O` [Gln], the Km turned out to be 3.2 ± 0.3 mM.

Take `CC[C@H](C)[C@H](N)C(=O)O` [Ile]: the Km was determined as 2 ± 0.1 mM. As for `N[C@@H](Cc1ccccc1)C(=O)O` [Phe], the Km came to 0.1 mM. As for `N[C@@H](Cc1ccc(O)cc1)C(=O)O` [Tyr], the figure is 1.1 ± 0.1 mM; as for `N[C@@H](Cc1cnc[nH]1)C(=O)O` [His], 14.1 ± 1.9 mM.
